{"source": "paper PMC3401907", "about": "“Cellular Uptakes, Biostabilities and Anti-miR-210 Activities of Chiral Arginine-PNAs in Leukaemic K562 Cells” (Chembiochem, 2012)", "key": {"[1]": {"test_system": "DNA1 (full-match antiparallel DNA)", "assay": "Melting temperature (Tm) of PNA:DNA duplexes, full-match DNA", "assay_type": "binding", "settings": "UV absorbance at 260 nm, strand concentration 5 μM", "description": "(§1) Measurements of Tm values: The Tm values were determined with a Lambda Bio 20 spectrophotometer and a Peltier PTP6 temperature programmer. Thermal denaturation profiles were measured by monitoring the absorbance at 260 nm from 18 to 90 °C with a heating rate of 1 °C min^−1 and recording every 0.1 °C. […]"}, "[2]": {"test_system": "DNA2 (mismatched DNA, G→T)", "assay": "Melting temperature (Tm) of PNA:DNA duplexes, single-mismatch DNA", "assay_type": "binding", "from_the_text": "Sequence selectivity is a very important issue in view of the use of PNAs in cellular systems, because partial hybridisation might occur with other unrelated miRNAs or, most importantly, with mRNA targets. We analysed the sequence selectivities of our PNAs with stricter models (DNA2 and RNA2) involving single base mismatches (G→T or G→U) located in the middle of the target sequences. In each case the sequence selectivity was confirmed by significant lowering of the melting temperature. The ranges of ΔTm due to the presence of these single mismatches were 8–21 °C for DNA, with the maximum drop in the case of PNA4 and the minimum observed in that of PNA6. For the latter it should be considered that the mismatch was facing the last chiral monomer, preventing the cooperative effect observed in the case of 2D-modifed highly constrained PNA.[22]\nMeasurements of Tm values: The Tm values were determined with a Lambda Bio 20 spectrophotometer and a Peltier PTP6 temperature programmer. Thermal denaturation profiles were measured by monitoring the absorbance at 260 nm from 18 to 90 °C with a heating rate of 1 °C min^−1 and recording every 0.1 °C. Measurement conditions: [PNA]=[DNA] or [RNA]=5 μM in PBS buffer [pH 7.0, NaCl (100 mM), NaH2PO4⋅H2O (10 mM), EDTA (0.1 mM)] with urea (5 M)."}, "[3]": {"test_system": "RNA1 (target region of miR-210)", "assay": "Melting temperature (Tm) of PNA:RNA duplexes, full-match RNA", "assay_type": "binding", "settings": "UV absorbance at 260 nm, strand concentration 5 μM", "description": "as §1"}, "miR-210": {"test_system": "miR-210", "assay": "miR-210 content by RT-qPCR analysis", "assay_type": "cell-based, human", "settings": "K562 cells, 24 h", "description": "K562 cells were treated with 15 nM mithramycin in the presence of a PNA (2 μM), and after 24 h RNA was isolated and miR-210 was assayed by RT-qPCR analysis. This type of test has been used to evaluate miR content in many studies because it allows the free-miR content to be evaluated. […] Figure 5 A and B reports the obtained data, showing that inhibition of miR bioavailability was induced both with the modified PNA and with the peptide-conjugated one, whereas in the case of PNA1 it was unchanged. […] This might be related to inhibition of pre-miR maturation or to unavailability of the miR to the qRT-PCR analysis due to strong complexation with the PNA. In either case the bioavailability of the miR for targeting other genes should be reduced.\nTransfection procedures: Anti-miR-210 PNAs were directly added to the cellular medium to reach the indicated final concentrations. K562 cells were cultured in 24-well plates starting from the initial density of 30 000 cells per mL. MTH was administrated together with anti-miR PNAs.\nRNA extraction: Cells were isolated by centrifugation at 1500 rpm for 10 min at 4 °C, washed in PBS and lysed in Tri-reagent (Sigma–Aldrich) according to the manufacturer's instructions. The isolated RNA was washed once with cold ethanol (75 %), dried and dissolved in ultrapure nuclease-free water.\nReal-time quantitative PCR: For microRNA quantification with real-time RT-PCR reagents, the primers and probes were obtained from Applied Biosystems. Reverse transcriptase (RT) reactions were performed with a TaqMan MicroRNA Reverse Transcription Kit (Applied Biosystems) for hsa-miR-210, hsa-miR-10a, hsa-miR-93, hsa-miR-99b, hsa-miR-126, hsa-miR-149, hsa-miR-424, hsa-miR-483-5p, hsa-miR-625, hsa-let-7c and the iQTM5 real-time PCR System Instrument (Bio-Rad). Relative expression was calculated by the comparative cycle threshold method and U6 microRNA was used as reference gene to normalise all RNA samples, because it is constant in the assayed samples by miR-profiling and quantitative RT-PCR analysis as previously reported.[25]"}, "γ-globin gene expression": {"test_system": "γ-globin gene expression", "assay": "γ-globin gene expression by RT-qPCR", "assay_type": "cell-based, human", "settings": "mithramycin-treated (15 nM) K562 cells, PNA 2 μM single administration, 72 h, n=3", "description": "The strong inhibition of miR-210 by PNA2 and PNA4 might thus result in appreciable reduction of γ-globin gene expression.\nFigure 6 A) Effects of pept-1, PNA1, PNA2 and PNA4 molecules (each 2 μM) on γ-globin content in K562 cell cultures for 72 h with MTH (15 nM). Data are reported as arbitrary units relative to cells treated with pept-1 and MTH (average±SD, n=3, *: p<0.05, **: p<0.01). B), C) Effects of treatment (72 h) with pept-1, PNA1, PNA2 and PNA4 molecules on K562 cells induced to erythroid differentiation by MTH (15 nM): B) summary of three independent experiments, C) a representative experiment showing staining of the cells with benzidine.\nThe nucleotide sequences used for real-time qPCR analysis of γ-globin mRNAs were γ-globin forward primer (5′-TGGCAA GAAGGT GCTGAC TTC-3′), γ-globin reverse primer (5′-TCACTC AGCTGG GCAAAG G-3′) and γ-globin probe (5′-FAM-TGGGAG ATGCCA TAAAGC ACCTGG-TAMRA-3′).[25] The relative expression was calculated by the comparative cycle threshold method with endogenous control human 18S rRNA as reference genes.[25]"}}}
{"substance": "H-C5LArgC5LArgG5LArgC5LArgT5LArgG5LArgT5LArgC5LArgACACGCACAG-NH2 [PNA4, 5L Arg (C5) backbone-modified 18-mer PNA, model 2, stretch of consecutive modified monomers]", "values": [{"measurement": "Tm, DNA1 in urea (5 M)", "setting": "[1]; PBS buffer pH 7 (NaCl 100 mM, NaH2PO4 10 mM, EDTA 0.1 mM) with urea 5 M", "result": 77, "unit": "°C"}, {"measurement": "Tm, DNA1 in water", "setting": "[1]; PBS buffer pH 7, no urea, 18 to 90 °C at 1 °C/min", "result": ">90", "unit": "°C"}, {"measurement": "ΔTm due to single mismatch, DNA", "setting": "[2]; DNA1 vs DNA2 (G→T in the middle of the target), urea 5 M", "result": 21, "unit": "°C"}, {"measurement": "Tm, DNA2 in urea (5 M)", "setting": "[2]; single mismatch, UV absorbance at 260 nm, PBS buffer pH 7 with urea 5 M, strand concentration 5 μM", "result": 56, "unit": "°C"}, {"measurement": "Tm, RNA1 in water", "setting": "[3]; PBS buffer pH 7, no urea", "result": ">90", "unit": "°C"}, {"measurement": "Tm, RNA1 in urea (5 M)", "setting": "[3]; PBS buffer pH 7 with urea 5 M", "result": 86, "unit": "°C"}, {"measurement": "miR-210 inhibition upon treatment with mithramycin", "setting": "miR-210; PNA 2 μM with MTH 15 nM, relative to pept-1 and MTH", "result": "best results"}, {"measurement": "inhibition of miR-210 bioavailability (miR-210 content)", "setting": "miR-210; PNA 2 μM, Figure 5 A and B, relative to pept-1", "result": "Stronger inhibition"}, {"measurement": "effect on γ-globin gene expression", "setting": "γ-globin gene expression", "result": "inhibited γ-globin gene expression"}]}
